Laboratory results from US9174948B2, “Desferrithiocin polyether analogues” (University of Florida Research Foundation, Inc., priority 2007, dated 2015).
Like-named read-outs stand apart in the source and are kept apart here.

Experiments:
[1] = tested on: Non-Iron-Overloaded Rodents; details: rats, po, 300 μmol/kg, historical data, cited from earlier work
[2] = tested on: Iron-Overloaded Cebus apella Primates; details: Cebus apella, po, 150 μmol/kg, historical data, cited from earlier work
[3] = tested on: Non-Iron-Overloaded Rodents; experiment: Chelator-induced iron clearance in non-iron-overloaded, bile duct-cannulated rats; assay type: in vivo, rat (male Sprague-Dawley); details: po, 300 μmol/kg
Source text: Chelator-Induced Iron Clearance in Non-Iron-Overloaded Rodents. […] J. Med. Chem. 2006, 49, 2772-2783]. Recall that iron-clearing efficiency (ICE) is defined as (net iron excretion)/(total iron-binding capacity of the chelator), expressed as a percent. The relative ICE values of compounds 1 and 2 were in keeping with their log Papp values: the more lipophilic, the larger log Papp, the more efficient the chelator. […] However, the ICE trend was in keeping with the biliary ferrokinetics (FIG. 3) and liver concentration of the chelators, for example, 3>1 (FIG. 4).
Cannulation of Bile Duct in Non-Iron-Overloaded Rats has been described previously. […]. […] The urine sample(s) was taken at 24 h intervals. Sample collection and handling are as previously described [Bergeron, R. J., Streiff, R. R., Creary, E. A., Daniels, R. D., Jr., King, W., Luchetta, G., Wiegand, J., Moerker, T. and Peter, H. H. A Comparative Study of the Iron-Clearing Properties of Desferrithiocin Analogues with Desferrioxamine B in a Cebus Monkey Model. Blood 1993, 81, 2166-2173; Bergeron, R. J., Streiff, R. R., Wiegand, J., Vinson, J. R. T., Luchetta, G., Evans, K. M., Peter, H. and Jenny, H.-B. A Comparative Evaluation of Iron Clearance Models. Ann. N.Y. Acad. Sci. 1990, 612, 378-393].
In the iron-clearing experiments, the rats were given a single 300 μmol/kg dose of drugs 1-9 orally (po).
J. Med. Chem. 1999, 42, 2432-2440].

Row | Compound | Iron-Clearing Efficiency (%) [1] | Iron-Clearing Efficiency (%) [2] | relative percentages of the iron excreted in the stool and urine [2] | other results
1 | C[C@]1(C(=O)O)CSC(c2cc(O)ccc2O)=N1 [Compound 4, (S)-2-(2,5-dihydroxyphenyl)-4,5-dihydro-4-methyl-4-thiazolecarboxylic acid] | 1.0±0.9% | 12.6±3.0% |  | 
2 | COc1ccc(O)c(C2=N[C@@](C)(C(=O)O)CS2)c1 [Compound 5, (S)-4,5-dihydro-2-(2-hydroxy-5-methoxyphenyl)-4-methyl-4-thiazolecarboxylic acid] | 6.3±1.2% | 18.9±2.3% |  | 
3 | COc1cccc(C2=N[C@@](C)(C(=O)O)CS2)c1O [Compound 8] |  | 22.5±7.1% |  | Iron-Clearing Efficiency (%) ([3]; 48 h sample collection period): 12.4±3.5%
4 | C[C@]1(C(=O)O)CSC(c2ccc(O)cc2O)=N1 [drawing 3] | 1.1 ± 0.8% |  |  | relative percentages of the iron excreted in the bile and urine [1]: 100/0
5 | COc1ccc(C2=N[C@@](C)(C(=O)O)CS2)c(O)c1 [drawing 4] | 6.6 ± 2.8% |  |  | relative percentages of the iron excreted in the bile and urine [1]: 98/2
6 | COCCOCCOCCOc1ccc(C2=N[C@@](C)(C(=O)O)CS2)c(O)c1 [drawing 5] | 5.5 ± 1.9% |  |  | relative percentages of the iron excreted in the bile and urine [1]: 90/10
7 | C[C@]1(C(=O)O)CSC(c2cc(O)ccc2O)=N1 [drawing 6] | 1.0 ± 0.9% |  |  | relative percentages of the iron excreted in the bile and urine [1]: 99/1
8 | COc1ccc(O)c(C2=N[C@@](C)(C(=O)O)CS2)c1 [drawing 7] | 6.3 ± 1.2% |  |  | relative percentages of the iron excreted in the bile and urine [1]: 95/5
9 | COCCOCCOCCOc1ccc(O)c(C2=N[C@@](C)(C(=O)O)CS2)c1 [drawing 8] |  |  |  | Iron-Clearing Efficiency (%) [3]: 8.0 ± 1.8%; relative percentages of the iron excreted in the bile and urine [3]: 98/2
10 | C[C@]1(C(=O)O)CSC(c2cccc(O)c2O)=N1 [drawing 9] |  |  |  | Iron-Clearing Efficiency (%) [3]: 4.6 ± 0.9%; relative percentages of the iron excreted in the bile and urine [3]: 98/2
11 | COc1cccc(C2=N[C@@](C)(C(=O)O)CS2)c1O [drawing 10] |  |  |  | Iron-Clearing Efficiency (%) ([3]; 48 h sample collection period): 12.4 ± 3.5%; relative percentages of the iron excreted in the bile and urine ([3]; 48 h sample collection period): 99/1
12 | COCCOCCOCCOc1cccc(C2=N[C@@](C)(C(=O)O)CS2)c1O [drawing 11] |  |  |  | Iron-Clearing Efficiency (%) ([3]; 48 h sample collection period): 10.6 ± 4.4%; relative percentages of the iron excreted in the bile and urine ([3]; 48 h sample collection period): 95/5
13 | C[C@]1(C(=O)O)CSC(c2ccc(O)cc2O)=N1 [drawing 12] |  | 16.8 ± 7.2% | 88/12 | 
14 | COc1ccc(C2=N[C@@](C)(C(=O)O)CS2)c(O)c1 [drawing 13] |  | 24.4 ± 10.8% | 91/9 | 
15 | COCCOCCOCCOc1ccc(C2=N[C@@](C)(C(=O)O)CS2)c(O)c1 [drawing 14] |  | 25.4 ± 7.4% | 96/4 | 
16 | C[C@]1(C(=O)O)CSC(c2cc(O)ccc2O)=N1 [drawing 15] |  | 12.6 ± 3.0% | 88/12 | 
17 | COc1ccc(O)c(C2=N[C@@](C)(C(=O)O)CS2)c1 [drawing 16] |  | 18.9 ± 2.3% | 94/6 | 
18 | C[C@]1(C(=O)O)CSC(c2cccc(O)c2O)=N1 [drawing 18] |  | 23.1 ± 5.9% | 83/17 | 
19 | COc1cccc(C2=N[C@@](C)(C(=O)O)CS2)c1O [drawing 19] |  | 22.5 ± 7.1% | 91/9 | 
